The numbers were not newly measured in article PMC10275055, “Preventing recurrence in Sonic Hedgehog Subgroup Medulloblastoma using the OLIG2 inhibitor CT-179” (Research Square, 2023), which cites them from elsewhere.

The subject of this series is OLIG2 dimerization and DNA binding. On the set-up: method as in PMID 26517684, PMID 31953259. The conditions noted are these: cited from earlier work.

On to `CCN1CCCC(Nc2cc(C)nc(/N=C(\N)Nc3ccc(Cl)c(Cl)c3)n2)C1` (stereo not shown) [SKOG102], for which the “effect on OLIG2 dimerization and DNA binding” value is “disrupts OLIG2 dimerization and DNA binding”.
